Publication PMC9266368, “Synthesis and Biological Evaluation of Small Molecules as Potential Anticancer Multitarget Agents” (International Journal of Molecular Sciences, 2022)

How the values were obtained:
[1] = test system: HT-29 (colon adenocarcinoma); experiment: MTT cell viability assay, HT-29; format: cell-based; conditions: Homo sapiens, HT-29, 48 h, 2 days incubation, average ±SD of three experiments
Protocol: (§1) The effects of triazole derivatives 1–26 on the cell viability were determined by MTT assay, and the IC50 values were determined toward the human tumor cell lines HT-29 (colon adenocarcinoma), A-549 (lung adenocarcinoma), and MCF-7 (breast adenocarcinoma), as well as toward the non-tumor cell line HEK-293 (human embryonic kidney cells).
(§2) In 96-well plates, 3 × 10^3 (A549 and HEK-293) or 5 × 10^3 (HT-29, MCF-7) cells per well were incubated with serial dilutions of the tested compounds in a total volume of 100 μL of their growth media. The 3-(4,5-dimethylthiazol-2-yl)-2,5-diphenyltetrazolium bromide (MTT; Sigma Chemical Co.) dye reduction assay in 96-well microplates was used. After 2 days of incubation (37 °C, 5% CO2 in a humid atmosphere), 10 μL of MTT (5 mg/mL in phosphate-buffered saline, PBS) was added to each well, and the plate was incubated for a further 3 h (37 °C). After that, the supernatant was discarded and replaced by 100 µL of DMSO to dissolve formazan crystals. The absorbance was then read at 550 nm by spectro-photometry. For all concentrations of compound, cell viability was expressed as the percentage of the ratio between the mean absorbance of treated cells and the mean absorbance of untreated cells. Three independent experiments were performed, and the IC50 values (i.e., concentration half inhibiting cell proliferation) were graphically determined by using GraphPad Prism 4 software (2019).

[2] = test system: A-549 (lung adenocarcinoma); experiment: MTT cell viability assay, A-549; format: cell-based; conditions: Homo sapiens, A549, 48 h, 2 days incubation, average ±SD of three experiments
Protocol: as §1, §2

[3] = test system: MCF-7 (breast adenocarcinoma); experiment: MTT cell viability assay, MCF-7; format: cell-based; conditions: Homo sapiens, MCF7, 48 h, 2 days incubation, average ±SD of three experiments
Protocol: as §1, §2

[4] = test system: HEK-293 (human embryonic kidney cells); experiment: MTT cell viability assay, HEK-293; format: cell-based; conditions: HEK293, 48 h, 2 days incubation, non-tumor cell line, average ±SD of three experiments
Protocol: as §1, §2

[5] = target: T1, membrane PD-L1 (mPD-L1) (Homo sapiens, UniProt Q9NZQ7); experiment: Membrane PD-L1 relative quantification by flow cytometry; format: cell-based; conditions: 24 h, 100 or 10 μM (Table 7), percentage referred to DMSO control
T1 construct: endogenous in cells; host or cells: HT-29, A-549, MCF-7
Protocol: Based on antiproliferative activity of synthetized derivatives, we decided to study the effect of the amino derivatives 14–26 on the expression of both membrane targets PD-L1 and VEGFR-2 (mPD-L1 and mVEGFR-2). The evaluation was performed on three cancer cell lines (HT-29, A-549, and MCF-7) by flow cytometry after 24 h of treatment with the corresponding compounds. Compounds were used at a 100 or 10 μM concentration depending on their IC50 value (see Table 1 in Materials and Methods section). The presence of both targets in the membrane was relatively determined by using DMSO-treated cells as a negative control.
(§3) To study the effect of the compounds on every biological target in cancer cell lines the compounds were used at a 100 or 10 μM dose, depending on their IC50 and the treated cell line.
(§4) For the assay, 10^5 cells per well were incubated for 24 h with the corresponding dose of the tested compound in a total volume of 500 μL of their growth media.
To detect membrane PD-L1 and VEGFR-2, after the cell treatments, they were collected, fixed with 4% in PBS paraformaldehyde, and stained with FITC Mouse monoclonal Anti-Human VEGFR-2 (ab184903) and Alexa Fluor® 647 Rabbit monoclonal Anti-PD-L1 (ab215251).

[6] = target: T2, membrane VEGFR-2 (mVEGFR-2) (Homo sapiens, UniProt P35968); experiment: Membrane VEGFR-2 relative quantification by flow cytometry; format: cell-based; conditions: 24 h, 100 or 10 μM (Table 7), sorafenib 10 μM, percentage referred to DMSO control
T2 construct: endogenous in cells; host or cells: HT-29, A-549, MCF-7
Protocol: The presence of both targets in the membrane was relatively determined by using DMSO-treated cells as a negative control.
as §4

[7] = target: T3, total PD-L1 (tPD-L1) (Homo sapiens, UniProt Q9NZQ7); experiment: Total PD-L1 relative quantification by flow cytometry; format: cell-based; conditions: 24 h, 100 or 10 μM (Table 7), relative to DMSO control
T3 construct: endogenous in cells; host or cells: HT-29, A-549, MCF-7
Protocol: (§5) The study was carried out again on HT-29, A-549, and MCF-7 cell lines by flow cytometry after 24 h of treatment with the corresponding compounds. The presence of the targets in the whole cell were relatively determined by using DMSO-treated cells as a negative control and BMS-8 as a positive one for PD-L1 (Table 3).
as §3, §4
(§6) For the detection of total PD-L1, VEGFR-2, and c-Myc, the procedure was the same as for membrane targets, but after fixation, a treatment with 0,5% in PBS TritonTM X-100 was performed. The antibodies used for PD-L1 and VEGFR-2 were the ones previously described, and for the detection of c-Myc, it was FITC Rabbit monoclonal anti-c-Myc (ab223913).

[8] = test system: c-Myc; experiment: c-Myc relative quantification by flow cytometry; format: cell-based, human; conditions: 24 h, 100 or 10 μM (Table 7), relative to DMSO control
Protocol: as §5, §3, §4, §6

T3 sequence (Q9NZQ7 19-290): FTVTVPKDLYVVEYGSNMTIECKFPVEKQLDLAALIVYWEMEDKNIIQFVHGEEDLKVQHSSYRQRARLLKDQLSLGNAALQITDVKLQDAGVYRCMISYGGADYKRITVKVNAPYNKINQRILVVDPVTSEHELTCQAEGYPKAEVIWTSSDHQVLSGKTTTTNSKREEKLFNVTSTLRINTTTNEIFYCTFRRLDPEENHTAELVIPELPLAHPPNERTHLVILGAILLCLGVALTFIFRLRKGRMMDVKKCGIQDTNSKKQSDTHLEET
T1 sequence (Q9NZQ7 19-290): as above
T2 sequence (P35968 20-1356): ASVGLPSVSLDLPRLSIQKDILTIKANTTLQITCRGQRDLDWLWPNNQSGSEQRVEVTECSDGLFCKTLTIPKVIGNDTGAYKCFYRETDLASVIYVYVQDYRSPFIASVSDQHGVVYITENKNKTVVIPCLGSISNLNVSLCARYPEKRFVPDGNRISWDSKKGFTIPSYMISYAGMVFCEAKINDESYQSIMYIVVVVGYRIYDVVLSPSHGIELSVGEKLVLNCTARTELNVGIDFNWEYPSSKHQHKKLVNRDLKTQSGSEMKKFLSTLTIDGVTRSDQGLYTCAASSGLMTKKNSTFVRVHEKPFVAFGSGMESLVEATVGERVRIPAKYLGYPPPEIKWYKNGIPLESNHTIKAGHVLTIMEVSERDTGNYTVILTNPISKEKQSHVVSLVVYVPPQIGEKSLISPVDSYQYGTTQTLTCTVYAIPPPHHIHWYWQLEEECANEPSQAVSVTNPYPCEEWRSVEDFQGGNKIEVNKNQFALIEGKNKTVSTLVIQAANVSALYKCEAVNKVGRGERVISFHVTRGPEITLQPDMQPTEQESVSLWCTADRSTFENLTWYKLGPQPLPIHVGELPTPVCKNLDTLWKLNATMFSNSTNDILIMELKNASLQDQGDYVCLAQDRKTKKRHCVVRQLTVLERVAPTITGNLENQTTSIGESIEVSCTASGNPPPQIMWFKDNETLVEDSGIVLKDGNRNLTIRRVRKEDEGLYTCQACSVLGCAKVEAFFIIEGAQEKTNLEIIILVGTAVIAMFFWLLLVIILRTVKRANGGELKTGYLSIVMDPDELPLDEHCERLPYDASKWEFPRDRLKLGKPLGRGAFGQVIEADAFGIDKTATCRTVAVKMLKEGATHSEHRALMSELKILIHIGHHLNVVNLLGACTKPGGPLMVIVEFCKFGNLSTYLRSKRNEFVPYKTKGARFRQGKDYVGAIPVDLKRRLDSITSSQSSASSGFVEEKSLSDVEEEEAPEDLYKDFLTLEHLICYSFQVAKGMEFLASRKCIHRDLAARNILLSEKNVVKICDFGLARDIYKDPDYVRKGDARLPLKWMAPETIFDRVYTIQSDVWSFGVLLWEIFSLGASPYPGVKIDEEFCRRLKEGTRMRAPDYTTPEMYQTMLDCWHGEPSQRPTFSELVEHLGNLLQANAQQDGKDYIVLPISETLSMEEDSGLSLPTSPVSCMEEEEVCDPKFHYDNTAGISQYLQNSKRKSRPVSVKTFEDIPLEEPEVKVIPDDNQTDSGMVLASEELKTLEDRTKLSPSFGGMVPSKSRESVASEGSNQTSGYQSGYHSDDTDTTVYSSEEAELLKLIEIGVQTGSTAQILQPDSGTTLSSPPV

SMILES | melting point [°C] | IC50 [1] [µM] | IC50 [2] [µM] | IC50 [3] [µM] | IC50 [4] [µM] | mPD-L1 relative detection, A-549 [5] [%] | mPD-L1 relative detection, HT-29 [5] [%] | mPD-L1 relative detection, MCF-7 [5] [%] | mVEGFR-2 relative detection, A-549 [6] [%] | mVEGFR-2 relative detection, HT-29 [6] [%] | mVEGFR-2 relative detection, MCF-7 [6] [%] | tPD-L1 relative detection, A-549 [7] [%] | tPD-L1 relative detection, HT-29 [7] [%] | tPD-L1 relative detection, MCF-7 [7] [%] | c-Myc relative detection, A-549 [8] [%] | c-Myc relative detection, HT-29 [8] [%] | c-Myc relative detection, MCF-7 [8] [%]
Clc1ccccc1Cn1cc(-c2ccccc2)nn1 [Compound 8, 1-(2-chlorobenzyl)-4-phenyl-1H-1,2,3-triazole] | 86 to 88 |  |  |  |  |  |  |  |  |  |  |  |  |  |  |  | 
Clc1cccc(Cn2cc(-c3ccccc3)nn2)c1 [Compound 9, 1-(3-chlorobenzyl)-4-phenyl-1H-1,2,3-triazole] | 108 to 110 |  |  |  |  |  |  |  |  |  |  |  |  |  |  |  | 
Clc1ccc(Cn2cc(-c3ccccc3)nn2)cc1 [Compound 10, 1-(4-chlorobenzyl)-4-phenyl-1H-1,2,3-triazole] | 141 to 144 |  |  |  |  |  |  |  |  |  |  |  |  |  |  |  | 
Brc1ccccc1Cn1cc(-c2ccccc2)nn1 [Compound 11, 1-(2-bromobenzyl)-4-phenyl-1H-1,2,3-triazole] | 100 to 103 |  |  |  |  |  |  |  |  |  |  |  |  |  |  |  | 
Brc1cccc(Cn2cc(-c3ccccc3)nn2)c1 [Compound 12, 1-(3-bromobenzyl)-4-phenyl-1H-1,2,3-triazole] | 96 to 99 |  |  |  |  |  |  |  |  |  |  |  |  |  |  |  | 
Brc1ccc(Cn2cc(-c3ccccc3)nn2)cc1 [Compound 13, 1-(4-bromobenzyl)-4-phenyl-1H-1,2,3-triazole] | 153 to 155 |  |  |  |  |  |  |  |  |  |  |  |  |  |  |  | 
Nc1ccc(-c2cn(Cc3ccccc3)nn2)cc1 [Compound 14, 4-(1-benzyl-1H-1,2,3-triazol-4-yl)aniline] | 180 to 181 | 2 ± 1 | > 100 | 1 | > 100 | >100 | >100 | 94 ± 5 | >100 | 95 ± 6 | >100 | 98 ± 3 | >100 | >100 | >100 | >100 | 60 ± 3
Cc1ccccc1Cn1cc(-c2ccc(N)cc2)nn1 [Compound 15, 4-(1-(2-methylbenzyl)-1H-1,2,3-triazol-4-yl)aniline] | 131 to 133 | 7 ± 1 | 4 ± 3 | 4 ± 1 | > 100 | 90 ± 6 | 74 ± 13 | 84 ± 11 | >100 | 87 ± 1 | >100 | >100 | >100 | >100 | >100 | >100 | >100
Cc1cccc(Cn2cc(-c3ccc(N)cc3)nn2)c1 [Compound 16, 4-(1-(3-methylbenzyl)-1H-1,2,3-triazol-4-yl)aniline] | 128 to 129 | 9 ± 6 | 0.7 | 2.1 | 63 ± 34 | 86 ± 17 | 66 ± 21 | >100 | >100 | 93 ± 1 | >100 | >100 | >100 | >100 | >100 | >100 | 78 ± 7
Nc1ccc(-c2cn(Cc3cccc(Br)c3)nn2)cc1 [Compound 25, 4-(1-(3-bromobenzyl)-1H-1,2,3-triazol-4-yl)aniline] | 134 to 135 | 8.5 |  | 8 ± 4 | 4 ± 3 | >100 | 87 ± 17 | 87 ± 17 | >100 | >100 | >100 | 76 ± 1 | 48 ± 7 | >100 | >100 | >100 | 56 ± 10
CNC(=O)c1cc(Oc2ccc(NC(=O)Nc3ccc(Cl)c(C(F)(F)F)c3)cc2)ccn1 [Sorafenib, sorafenib, reference compound] |  | 17 ± 4 | 27 ± 2 | 14 ± 4 | 5 |  |  |  |  |  |  |  |  |  |  |  | 
